Test results taken from patent publication US11613538B2, “Method of inhibiting or reducing a viral infection” (PTC Therapeutics, Inc., priority 2009, dated 2023).

System: hypoxia-induced VEGF production in HeLa cells
Experiment: cells
Type: cell-based, human
Conditions: Homo sapiens, HeLa

SMILES | EC50 [nM]
CC#CCOC(=O)N1CCc2c([nH]c3c(C)cccc23)C1c1ccc(OC)cc1 (stereo not drawn) [Compound 1430] | > 1000
COC(=O)N1CCc2c([nH]c3c(C)cccc23)C1c1ccc(OC)cc1 (stereo not drawn) [Compound 1431] | > 1000
N=C1SCCN1CCCOc1ccc(C2c3[nH]c4ccc(Cl)cc4c3CCN2C(=O)OCCF)cc1 (stereo not drawn) [Compound 1432] | 8 to 40
CCOC(=O)N1CCc2c([nH]c3ccc(Cl)cc23)C1c1ccc(OCCNc2ncncn2)cc1 (stereo not drawn) [Compound 1433] | < 8
CC#CCOC(=O)N1CCc2c([nH]c3ccc(Cl)cc23)C1c1ccc(OCCn2cc(C#N)c(N)n2)cc1 (stereo not drawn) [Compound 1434] | < 8
[H]/N=C(\N)NCCOc1ccc(C2c3[nH]c4ccc(Cl)cc4c3CCN2C(=O)OCC(C)C)cc1 (stereo not drawn) [Compound 1435] | 200 to 1000
CC(C)COC(=O)N1CCc2c([nH]c3ccc(Cl)cc23)C1c1ccc(OCCNc2ncncn2)cc1 (stereo not drawn) [Compound 1436] | < 8
COCCOC(=O)N1CCc2c([nH]c3ccc(Cl)cc23)C1c1ccc(OCCn2nc(N)cc2C)cc1 (stereo not drawn) [Compound 1437] | 8 to 40
COCCOC(=O)N1CCc2c([nH]c3ccc(Cl)cc23)C1c1ccc(OCCn2cc(C#N)c(N)n2)cc1 (stereo not drawn) [Compound 1438] | 40 to 200
CC#CCOC(=O)N1CCc2c([nH]c3cc(Cl)ccc23)C1c1ccc(OC)cc1 (stereo not drawn) [Compound 1443] | 200 to 1000
COc1ccc(C2c3[nH]c4cc(Cl)ccc4c3CCN2C(=O)Oc2ccc(Cl)cc2)cc1 (stereo not drawn) [Compound 1444] | 40 to 200
CC#CCOC(=O)N1CCc2c([nH]c3cc(Br)ccc23)C1c1ccc(OC(F)F)cc1 (stereo not drawn) [Compound 1445] | 40 to 200
O=C(Oc1ccc(Cl)cc1)N1CCc2c([nH]c3cc(Br)ccc23)C1c1ccc(OC(F)F)cc1 (stereo not drawn) [Compound 1446] | 40 to 200
COc1ccc(OC(=O)N2CCc3c([nH]c4cc(Br)ccc34)C2c2ccc(OC(F)F)cc2)cc1 (stereo not drawn) [Compound 1447] | 40 to 200
O=C(OCCF)N1CCc2c([nH]c3cc(Br)ccc23)C1c1ccc(OC(F)F)cc1 (stereo not drawn) [Compound 1448] | 200 to 1000
O=C(Oc1ccccc1Cl)N1CCc2c([nH]c3cc(Br)ccc23)C1c1ccc(OC(F)F)cc1 (stereo not drawn) [Compound 1449] | 200 to 1000
O=C(Oc1ccc(F)cc1)N1CCc2c([nH]c3cc(Br)ccc23)C1c1ccc(OC(F)F)cc1 (stereo not drawn) [Compound 1450] | 40 to 200
COc1ccc(OC(=O)N2CCc3c([nH]c4cc(Cl)ccc34)C2c2ccc(OC)cc2)cc1 (stereo not drawn) [Compound 1455] | > 1000
CC#CCOC(=O)N1CCc2c([nH]c3cc(F)ccc23)C1c1ccc(C)cc1 (stereo not drawn) [Compound 1456] | > 1000
Cc1ccc(C2c3[nH]c4cc(F)ccc4c3CCN2C(=O)Oc2ccc(Cl)cc2)cc1 (stereo not drawn) [Compound 1457] | 200 to 1000
COc1ccc(OC(=O)N2CCc3c([nH]c4cc(F)ccc34)C2c2ccc(F)cc2)cc1 (stereo not drawn) [Compound 1458] | > 1000
O=C(Oc1ccc(Cl)cc1)N1CCc2c([nH]c3cc(F)ccc23)C1c1ccc(F)cc1 (stereo not drawn) [Compound 1459] | > 1000
COc1ccc(OC(=O)N2CCc3c([nH]c4cc(F)ccc34)C2c2ccc(OC)cc2)cc1 (stereo not drawn) [Compound 1460] | > 1000
COc1ccc(C2c3[nH]c4cc(F)ccc4c3CCN2C(=O)Oc2ccc(Cl)cc2)cc1 (stereo not drawn) [Compound 1461] | 200 to 1000
COc1ccc(OC(=O)N2CCc3c([nH]c4cc(F)ccc34)C2c2ccc(OC(F)F)cc2)cc1 (stereo not drawn) [Compound 1462] | 200 to 1000
O=C(Oc1ccc(Cl)cc1)N1CCc2c([nH]c3cc(F)ccc23)C1c1ccc(OC(F)F)cc1 (stereo not drawn) [Compound 1463] | 40 to 200
CCOC(=O)N1CCc2c([nH]c3ccc(Cl)cc23)C1c1ccc(OCC(O)CNC(=O)CC)cc1 (stereo not drawn) [Compound 1464] | 8 to 40
CCOC(=O)N1CCc2c([nH]c3ccc(Cl)cc23)C1c1ccc(OCC(O)CNC(=O)C(C)C)cc1 (stereo not drawn) [Compound 1465] | 8 to 40
CCOC(=O)N1CCc2c([nH]c3ccc(Cl)cc23)C1c1ccc(OCC(O)CNC(=O)C2CC2)cc1 (stereo not drawn) [Compound 1466] | 8 to 40
CCOC(=O)N1CCc2c([nH]c3ccc(Cl)cc23)C1c1ccc(OCC(O)CNC(=O)c2ccncc2)cc1 (stereo not drawn) [Compound 1467] | < 8
